Measurements as given in patent US20220041641A1, “QUATERNARY AMMONIUM SALTS AS INHIBITORS OF TRIMETHYLAMINE PRODUCTION” (Senda Biosciences, Inc., priority 2018, published 2022).
Several values for one entry are separate records, joined by “and”; a condition that tells them apart may be missing. Equal values may be shown once. Read-outs that look alike come from different tables or passages of the source.

Legend:
CutC/D enzyme = assay: Acute mouse model (plasma TMAO on choline diet); format: in vivo, male C57BL/6 mice
Protocol: The following acute mouse model may be used to determine inhibition of the CutC/D enzyme and thus the inhibition of the formation of trimethylamine (TMA) from choline.
On day 1, male C57BL/6 mice were given a chemically defined diet (Tekland Global Rodent Diet 2018) containing 1.0% choline (g/g) for the duration of the experiment. Concurrently on day 1, mice were orally gavaged with 200 μL of compounds of interest (formulated in water). Mice were orally gavaged with the compounds and vehicle control again on day 2 and day 3 at a fixed time. Twenty hours after the last gavage, mice were sacrificed, and plasma was collected and prepared for detection of trimethylamine-N-oxide (TMAO) via liquid chromatography with on-line tandem mass spectrometry (LC-MS/MS). Food consumption and mouse weight were measured each day.
Plasma samples were prepared for LCMS as follows: An aliquot of 20 μL plasma sample was protein precipitated with 200 μL internal standard solution (100 ng/mL Labetalol & 100 ng/mL Tolbutamide & 100 ng/mL Diclofenac in acetonitrile, the mixture was vortex-mixed and centrifuged at 4000 rpm for 15 min, 4° C. An aliquot of 100 μL supernatant was transferred to the sample plate for LCMS injection. 1 μL of sample was injected onto an LC column for TMAO LCMS analysis.
Concentrations of TMAO were determined with a calibration curve ranging 0.05-100 μM for d9-TMAO in control plasma.

[1] = Caco-2 permeability assay; format: in vitro ADME; conditions: human
Protocol: Preparation of Caco-2 Cells: 50 μL and 25 mL of cell culture medium were added to each well of the Transwell insert and reservoir, respectively. The HTS transwell plates were incubated at 37° C., 5% CO2 for 1 hour before cell seeding. […] Cell culture medium was replaced every other day, beginning no later than 24 hours after initial plating.
Assessment of Cell Monolayer Integrity: Medium was removed from the reservoir and each Transwell insert and replaced with prewarmed fresh culture medium. Transepithelial electrical resistance (TEER) across the monolayer was measured using Millicell Epithelial Volt-Ohm measuring system (Millipore, USA). The Plate was returned to the incubator once the measurement was done. The TEER value was calculated according to the following equation: […]
Preparation of Solutions: 2 mM stock solutions in DMSO of control compounds were prepared and diluted with HBSS (10 mM HEPES, pH 7.4) to get 10 μM working solution. 0.2 mM stock solutions of test compounds in DMSO were prepared and diluted with HBSS (10 mM HEPES, pH 7.4 with 0.5% BSA) to get 1 μM working solution. Metoprolol, erythromycin and cimetidine were used as control compounds.
The Caco-2 plate was removed from the incubator. The monolayer was washed twice with pre-warmed HBSS (10 mM HEPES, pH 7.4). The plate was incubated at 37° C. for 30 minutes. To determine the rate of drug transport in the apical to basolateral direction, 125 μL of the working solution was added to the Transwell insert (apical compartment). A 50 μL sample was transferred immediately from the apical compartment to 200 μL of acetonitrile containing IS (100 nM alprazolam, 200 nM Caffeine and 100 nM tolbutamide) in a new 96-well plate as the initial donor sample (A-B) and it was vortexed at 1000 rpm for 10 minutes. The wells in the receiver plate (basolateral compartment) were filled with 235 μL of transport buffer. To determine the rate of drug transport in the basolateral to apical direction, 285 μL of the working solution were added to the receiver plate wells (basolateral compartment). A 50 μL sample was transferred immediately from the basolateral compartment to 200 μL of acetonitrile containing IS (100 nM alprazolam, 200 nM Caffeine and 100 nM tolbutamide) in a new 96-well plate as the initial donor sample (B-A) and it was vortexed at 1000 rpm for 10 minutes. The Transwell insert (apical compartment) was filled with 75 μL of transport buffer. The apical to basolateral direction and the basolateral to apical direction need to be done at the same time. The plates were incubated at 37° C. for 2 hours. At the end of the incubation, 50 μL samples from donor sides (apical compartment for Ap→Bl flux, and basolateral compartment for B1→Ap) and receiver sides (basolateral compartment for Ap→Bl flux, and apical compartment for B1→Ap) were transferred to wells of a new 96-well plate, followed by the addition of 4 volume of acetonitrile containing IS (100 nM alprazolam, 200 nM Caffeine and 100 nM tolbutamide). Samples were vortexed for 10 minutes, 50 μL samples were transferred to wells of a new 96-well plate, followed by the addition of 50 μL Hepes and 200 μL IS. All samples were vortexed for 10 minutes, and then centrifuged at 3,220 g for 40 minutes. An aliquot of 150 μL of the supernatant was mixed with an appropriate volume of ultra-pure water before LC-MS/MS analysis.
Apparent permeability (Papp) can be calculated for drug transport assays using the following equation: […]
Papp is apparent permeability (cm/s×10^−6);
Papp (B-A) indicates the apparent permeability coefficient in basolateral to apical direction, and
Papp (A-B) indicates the apparent permeability coefficient in apical to basolateral direction.

[2] = molecular target: CutC from Clostridium sporogenes (Clostridium sporogenes, UniProt A0AAE4Z0A8); assay: Cell-based assay for TMA production from a native producer (C. sporogenes); conditions: read-out: IC50 Whole cell C. sporogenes; d9-TMA from 1 mM d9-choline, 5 h, 37° C.; run once; value 10 given when no fit or % TMA remaining at 10 μM higher than 15%
From the text: In each bacterium, CutC was modified into its activated form by a cognate activating enzyme, CutD (protein EDU36696.1 for C. sporogenes; protein WP_004249185.1 for P. mirabilis). […] Trimethylamine may subsequently be converted by human enzymes such as flavin monooxygenase 3 to trimethylamine N-oxide, which might be associated with negative health consequences in humans.
A compound's ability to inhibit CutC from Proteus mirabilis and C. sporogenes from converting choline into trimethylamine was tested in cells as described. A BHI blood plate was inoculated with a frozen stock of Proteus mirabilis or Clostridium sporogenes under anaerobic conditions. A single colony was isolated from the plate and inoculated into 5 mL BHI supplemented with 1 mM choline under anaerobic conditions. The liquid cultures were grown overnight at 37° C.
To prepare each sample, 300 μL of the saturated culture was then inoculated into a 30 mL dilution blank under anaerobic conditions. 1 mM (trimethyl-d9)-choline and a sufficient amount of a compound to obtain a final concentration of 10 μM were added to the inoculated dilution blank. […] The mixture was incubated at 37° C. for 5 h. […] After centrifugation, the samples were analyzed by LCMS to determine the amount of d9-TMA produced.

[3] = molecular target: CutC from Proteus mirabilis (Proteus mirabilis, UniProt B4EYG1); assay: Cell-based assay for TMA production from a native producer (P. mirabilis); conditions: d9-TMA from 1 mM d9-choline, 5 h, 37° C.; value 10 given when no fit or % TMA remaining at 10 μM higher than 15%; read-out: Average IC50 Whole cell P. mirabilis
How it was run: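 Overnight anaerobic cultures of P. mirabilis or C. sporogenes, grown in BHI with 1 mM choline, were diluted and given 1 mM (trimethyl-d9)-choline plus compound at 10 μM final. After 5 h at 37° C., d9-TMA was quantified by LCMS.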

[4] = pH 7.4, Caco-2, apical to basolateral, 1 μM, 2 hours, 37° C., read-out: Papp A-B
[5] = pH 7.4, Caco-2, basolateral to apical, 1 μM, 2 hours, 37° C., read-out: Papp B-A
[6] = Table 4b, 10 mg/kg oral gavage days 1-3
[7] = Table 4b, 10 mg/kg oral gavage days 1-3, plasma 20 h after last gavage

CutC from Proteus mirabilis, sequence (B4EYG1 entry or part of it): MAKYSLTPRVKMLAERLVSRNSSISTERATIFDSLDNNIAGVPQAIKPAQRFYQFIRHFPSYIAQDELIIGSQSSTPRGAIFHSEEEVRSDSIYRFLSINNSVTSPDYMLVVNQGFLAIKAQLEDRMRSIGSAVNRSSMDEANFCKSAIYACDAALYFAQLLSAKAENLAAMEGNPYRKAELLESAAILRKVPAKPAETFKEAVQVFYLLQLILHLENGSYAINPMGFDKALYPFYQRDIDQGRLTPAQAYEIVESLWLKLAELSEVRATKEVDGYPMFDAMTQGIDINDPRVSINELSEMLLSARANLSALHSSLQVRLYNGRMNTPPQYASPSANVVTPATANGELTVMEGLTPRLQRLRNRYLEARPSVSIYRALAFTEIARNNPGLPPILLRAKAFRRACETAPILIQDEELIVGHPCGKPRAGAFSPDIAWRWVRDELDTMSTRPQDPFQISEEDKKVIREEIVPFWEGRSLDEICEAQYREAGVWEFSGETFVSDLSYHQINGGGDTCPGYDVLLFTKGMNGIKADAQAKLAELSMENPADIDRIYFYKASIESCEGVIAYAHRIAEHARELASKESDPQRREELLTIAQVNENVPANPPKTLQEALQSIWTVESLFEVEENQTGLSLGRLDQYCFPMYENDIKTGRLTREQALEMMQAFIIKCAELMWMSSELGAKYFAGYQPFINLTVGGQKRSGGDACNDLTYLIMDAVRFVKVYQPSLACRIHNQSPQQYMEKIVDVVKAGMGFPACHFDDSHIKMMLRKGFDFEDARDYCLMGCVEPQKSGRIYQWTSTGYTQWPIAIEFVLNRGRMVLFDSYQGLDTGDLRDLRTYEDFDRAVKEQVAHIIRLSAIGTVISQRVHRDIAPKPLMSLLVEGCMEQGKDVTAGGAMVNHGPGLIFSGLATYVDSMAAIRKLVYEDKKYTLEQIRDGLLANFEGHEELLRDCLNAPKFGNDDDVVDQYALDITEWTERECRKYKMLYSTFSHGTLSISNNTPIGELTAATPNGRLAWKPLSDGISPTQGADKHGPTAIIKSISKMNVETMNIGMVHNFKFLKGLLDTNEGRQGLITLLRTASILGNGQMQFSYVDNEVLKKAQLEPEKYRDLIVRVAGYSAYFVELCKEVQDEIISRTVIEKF
CutC from Proteus mirabilis, sequence (B4EYG0 entry or part of it, further chain): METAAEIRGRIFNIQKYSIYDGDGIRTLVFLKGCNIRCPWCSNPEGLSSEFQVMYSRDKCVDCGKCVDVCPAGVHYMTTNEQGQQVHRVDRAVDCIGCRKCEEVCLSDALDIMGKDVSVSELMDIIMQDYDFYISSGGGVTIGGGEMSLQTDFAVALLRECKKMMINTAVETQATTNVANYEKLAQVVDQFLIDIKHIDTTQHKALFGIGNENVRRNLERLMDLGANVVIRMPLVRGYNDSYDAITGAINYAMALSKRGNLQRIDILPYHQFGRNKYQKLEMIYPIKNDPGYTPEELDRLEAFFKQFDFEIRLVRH
CutC from Clostridium sporogenes, sequence (A0ABD6RTF0 entry or part of it): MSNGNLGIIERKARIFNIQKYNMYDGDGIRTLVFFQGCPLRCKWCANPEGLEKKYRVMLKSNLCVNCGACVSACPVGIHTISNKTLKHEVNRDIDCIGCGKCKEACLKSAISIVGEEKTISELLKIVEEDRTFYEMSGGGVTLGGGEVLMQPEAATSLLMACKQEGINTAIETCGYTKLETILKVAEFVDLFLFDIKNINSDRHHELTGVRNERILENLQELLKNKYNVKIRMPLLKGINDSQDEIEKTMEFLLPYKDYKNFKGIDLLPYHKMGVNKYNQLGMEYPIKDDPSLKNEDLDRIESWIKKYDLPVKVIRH
CutC from Clostridium sporogenes, sequence (A0AAE4Z0A8 entry or part of it): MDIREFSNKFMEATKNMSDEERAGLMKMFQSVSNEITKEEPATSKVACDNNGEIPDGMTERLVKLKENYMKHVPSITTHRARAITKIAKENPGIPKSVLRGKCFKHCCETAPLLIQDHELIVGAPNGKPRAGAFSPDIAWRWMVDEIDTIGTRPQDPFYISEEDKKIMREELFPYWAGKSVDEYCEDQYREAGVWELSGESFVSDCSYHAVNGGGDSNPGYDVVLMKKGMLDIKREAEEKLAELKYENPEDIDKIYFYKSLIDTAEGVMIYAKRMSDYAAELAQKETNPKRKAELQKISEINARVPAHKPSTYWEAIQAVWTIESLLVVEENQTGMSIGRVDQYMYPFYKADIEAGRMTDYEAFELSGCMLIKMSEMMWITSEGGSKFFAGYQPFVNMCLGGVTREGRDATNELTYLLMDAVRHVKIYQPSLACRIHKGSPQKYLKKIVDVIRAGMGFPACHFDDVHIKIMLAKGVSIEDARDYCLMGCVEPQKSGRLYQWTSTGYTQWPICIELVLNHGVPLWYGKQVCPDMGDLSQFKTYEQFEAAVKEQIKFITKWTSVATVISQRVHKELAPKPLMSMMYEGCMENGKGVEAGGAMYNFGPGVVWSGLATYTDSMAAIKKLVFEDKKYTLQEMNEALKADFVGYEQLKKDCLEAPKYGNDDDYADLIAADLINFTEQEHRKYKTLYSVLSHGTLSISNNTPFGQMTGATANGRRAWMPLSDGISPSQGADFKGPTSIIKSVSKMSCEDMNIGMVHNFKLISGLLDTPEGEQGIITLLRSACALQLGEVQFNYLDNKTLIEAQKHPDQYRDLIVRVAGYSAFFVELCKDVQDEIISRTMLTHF

C#CC[N+](C)(C)CCO.[Br-] [Compound J60, N-(2-hydroxyethyl)-N,N-dimethylprop-2-yn-1-aminium Iodide]
% change from vehicle control + choline diet (CutC/D enzyme; Table 4a, 10 mg/kg oral gavage days 1-3): −28.46%
Mean plasma TMAO (CutC/D enzyme; Table 4a, 10 mg/kg oral gavage days 1-3, plasma 20 h after last gavage): 31.06 µM
% change from vehicle control + choline diet (CutC/D enzyme; Table 4a, 33 mg/kg oral gavage days 1-3): −60.39%
Mean plasma TMAO (CutC/D enzyme; Table 4a, 33 mg/kg oral gavage days 1-3, plasma 20 h after last gavage): 17.20 µM
% change from vehicle control + choline diet (CutC/D enzyme; Table 4a, 100 mg/kg oral gavage days 1-3): −87.29%
Mean plasma TMAO (CutC/D enzyme; Table 4a, 100 mg/kg oral gavage days 1-3, plasma 20 h after last gavage): 5.52 µM
Mean plasma TMAO (CutC/D enzyme; Table 4b, 10 mg/kg oral gavage days 1-3, plasma 20 h after last gavage, 10 mg/kg): 27.4 µM and 24.7 µM
% change from vehicle control + choline diet (CutC/D enzyme; Table 4c, 100 mg/kg oral gavage days 1-3): −74.22%
Mean plasma TMAO (CutC/D enzyme; Table 4c, 100 mg/kg oral gavage days 1-3, plasma 20 h after last gavage): 5.41 µM
% change from vehicle control + choline diet (CutC/D enzyme; Table 4e, 100 mg/kg oral gavage days 1-3): −86%
Mean plasma TMAO (CutC/D enzyme; Table 4e, 100 mg/kg oral gavage days 1-3, plasma 20 h after last gavage): 3.81 µM
% change from vehicle control + choline diet (CutC/D enzyme; Table 4f, 100 mg/kg oral gavage days 1-3): −81%
Mean plasma TMAO (CutC/D enzyme; Table 4f, 100 mg/kg oral gavage days 1-3, plasma 20 h after last gavage): 6.20 µM
% change from vehicle control + choline diet (CutC/D enzyme; Table 4g, 100 mg/kg oral gavage days 1-3): −53%
Mean plasma TMAO (CutC/D enzyme; Table 4g, 100 mg/kg oral gavage days 1-3, plasma 20 h after last gavage): 13.1 µM
% change from vehicle control + choline diet (CutC/D enzyme; Table 4h, 100 mg/kg oral gavage days 1-3): −80%
Mean plasma TMAO (CutC/D enzyme; Table 4h, 100 mg/kg oral gavage days 1-3, plasma 20 h after last gavage): 8.72 µM
% change from vehicle control + choline diet (CutC/D enzyme; Table 4d, 100 mg/kg oral gavage days 1-3): −68%
Mean plasma TMAO (CutC/D enzyme; Table 4d, 100 mg/kg oral gavage days 1-3, plasma 20 h after last gavage): 6.00 µM
Papp A→B at 2 h, 1 µM [1, 4]: 11.1 ×10⁻⁶ cm/s
Papp B→A at 2 h, 1 µM [1, 5]: 6.23 ×10⁻⁶ cm/s

C[N+]1(CF)CCC[C@H]1CO.[I-] (stereo partly drawn) [Compound 109, (2S)-1-(fluoromethyl)-2-(hydroxymethyl)-1-methylpyrrolidin-1-ium iodide]
IC50 [2]: 420 nM
% change from vehicle control + choline diet (CutC/D enzyme; Table 4g, 116 mg/kg oral gavage days 1-3): −90%
Mean plasma TMAO (CutC/D enzyme; Table 4g, 116 mg/kg oral gavage days 1-3, plasma 20 h after last gavage): 2.71 µM
IC50 [3]: 620 nM
Papp A→B at 2 h, 1 µM ([1]; Caco-2, pH 7.4): 0.6 ×10⁻⁶ cm/s
Papp B→A at 2 h, 1 µM ([1]; Caco-2, pH 7.4): 0.5 ×10⁻⁶ cm/s

C#CC[N+](C)(C)CCCCO.O=C([O-])C(F)(F)F [Compound 141, 4-hydroxy-N,N-dimethyl-N-(prop-2-yn-1-yl)butan-1-aminium Trifluoroacetate]
IC50 [2]: ≥ 10000 nM
% change from vehicle control + choline diet (CutC/D enzyme; [6]): −88.23%
Mean plasma TMAO (CutC/D enzyme; [7]): 2.92 µM
IC50 [3]: 5250 nM

C#CC[N+](C)(C)CC(=C)C(=O)O.[Br-] [Compound B52, 2-carboxy-N,N-dimethyl-N-(prop-2-yn-1-yl)prop-2-en-1-aminium Bromide]
IC50 [2]: 10 nM
% change from vehicle control + choline diet (CutC/D enzyme; [6]): 20.76%
Mean plasma TMAO (CutC/D enzyme; [7]): 30.0 µM
IC50 [3]: 40 nM and 30 nM

C#CC[N+]1(C)CCCN1.[I-] (centres unmarked) [Compound 125, 1-methyl-1-(prop-2-yn-1-yl)pyrazolidin-1-ium Iodide]
% change from vehicle control + choline diet (CutC/D enzyme; Table 4g, 9.8 mg/kg oral gavage days 1-3): −6%
Mean plasma TMAO (CutC/D enzyme; Table 4g, 9.8 mg/kg oral gavage days 1-3, plasma 20 h after last gavage): 26.2 µM
% change from vehicle control + choline diet (CutC/D enzyme; Table 4g, 97.7 mg/kg oral gavage days 1-3): 18%
Mean plasma TMAO (CutC/D enzyme; Table 4g, 97.7 mg/kg oral gavage days 1-3, plasma 20 h after last gavage): 32.8 µM
IC50 [3]: 190 nM
Papp A→B at 2 h, 1 µM ([1]; Caco-2, pH 7.4): 0.466 ×10⁻⁶ cm/s
Papp B→A at 2 h, 1 µM ([1]; Caco-2, pH 7.4): 0.482 ×10⁻⁶ cm/s

C[N+](C)(CCO)CC1CC1.[Br-] [Compound 107, N-(cyclopropylmethyl)-2-hydroxy-N,N-dimethylethan-1-aminium Bromide]
IC50 [2]: ≥ 10000 nM
IC50 [3]: ≥ 10000 nM
Papp A→B at 2 h, 1 µM [1, 4]: 26.8 ×10⁻⁶ cm/s
Papp B→A at 2 h, 1 µM [1, 5]: 31.1 ×10⁻⁶ cm/s

C[N+](C)(CCO)C1CC1.[I-] [Compound 111, N-(2-hydroxyethyl)-N,N-dimethylcyclopropanaminium Iodide]
IC50 [2]: 220 nM
IC50 [3]: 140 nM and 270 nM
Papp A→B at 2 h, 1 µM ([1]; Caco-2, pH 7.4): 0.8 ×10⁻⁶ cm/s
Papp B→A at 2 h, 1 µM ([1]; Caco-2, pH 7.4): 0.8 ×10⁻⁶ cm/s

C#CC[N+](C)(CF)CCO[C@@H]1O[C@H](COC(C)=O)[C@@H](OC(C)=O)[C@H](OC(C)=O)[C@H]1OC(C)=O (stereo partly drawn) [Compound 77, (fluoromethyl)(methyl)(prop-2-yn-1-yl)(2-{[(2R,3R,4S,5R,6R)-3,4,5-tris(acetyloxy)-6-[(acetyloxy)methyl]oxan-2-yl]oxy}ethyl)azanium]
IC50 [3]: ≥ 10000 nM
Papp A→B at 2 h, 1 µM [1, 4]: 0.218 ×10⁻⁶ cm/s
Papp B→A at 2 h, 1 µM [1, 5]: 0.337 ×10⁻⁶ cm/s
